Results published in patent publication US20220105150A1, “AMPHIPATHIC ALPHA-HELICAL ANTIMICROBIAL PEPTIDES TREAT INFECTIONS BY GRAM-NEGATIVE PATHOGENS” (priority 2019, published 2022).
Values after ≈ are worked out from the molar mass of the structure shown. Each block holds one molecule with its values, some of them ahead of it. Square brackets hold non-standard residues; d marks the D form. dOrn = NCCC[C@@H](N)C(=O)O; Dab = NCC[C@H](N)C(=O)O

Legend:
human red blood cells = assay: Hemolytic activity on human red blood cells
Method: For comparison, the inventors also determined the hemolytic activity after 18 hours at 37° C. Hemolysis can be determined with red blood cells (RBC) from various species including human red blood cells (hRBC).
(§1) The coupling procedure used 5 equivalents of Fmoc-D-amino acid or Fmoc-L-amino acid and HCTU (O-(1H-6-chlorobenzotriazole-1-yl)-1,1,3,3-tetramethyluronium hexafluorophosphate) and 6-Cl-HOBt (1-hydroxy-6-chloro-benztriazole) at 4.5 equivalents in DMF (Fisher Scientific, Denver, Colo.) and N-diisopropylethylamine (DIPEA) 10 equivalents (Oakwood Products, Inc., Estill, S.C.) in N-methyl-2-pyrrolidinone (NMP) (Fisher Scientific, Denver, Colo.) with the first and second couplings at room temperature for 30 min each. The deprotection procedure (removal of Fmoc protecting group) was carried out by treatment of the resin with 0.1 M HOBt (1-hydroxybenzotriazole) in DMF with 20% piperidine for 30 min. […] The resin was removed by filtration and peptide was precipitated with ice-cooled ethyl ether on ice for 15 min. Ether was decanted, the peptide was washed twice with ether and redissolved in acetonitrile/water (1:1, with 0.2% TFA) and the solution lyophilized to obtain the crude peptide. • Analytical and Preparative Purification by Reversed-Phase Chromatography: Analytical RP-HPLC: Column, Luna C18 (2), 250×4.6 mm I.D., 5 μm particle size, 100 Å pore size from Phenomenex (Torrance, Calif.). Run conditions: linear AB gradient (1% acetonitrile/min, starting from 2% acetonitrile) at a flow-rate of 1 ml/min, where eluent A is 0.2% aq. TFA and eluent B is 0.18% TFA in acetonitrile; temperature, 30° C. Preparative RP-HPLC: Peptides were dissolved in 0.2% aq. TFA containing 2% acetonitrile to a final concentration of 10 mg/ml. Following filtration through a 0.45 μm Millipore filter and subsequently through a 0.22 μm filter, the peptide solutions were loaded onto the column via multiple 20-ml injections into a 20-ml injection loop at a flow-rate of 10 ml/min. Column, Luna C18 (2), 250×30 mm I.D., 5 um particle size, 100 Å pore size from Phenomenex. Run conditions: 2% acetonitrile/min gradient up to an acetonitrile concentration 10% below that required to elute the peptide during analytical RP-HPLC, then shallow gradient elution (0.05% or 0.1% acetonitrile/min depending on the complexity of impurities near the product of interest on the analytical run of the crude peptide) at a flow-rate of 10 ml/min (same eluents as shown above for analytical RP-HPLC); at room temperature. • Temperature Profiling of Peptides on Reversed-phase HPLC to Measure Dimerization and Oligomerization: Purified peptides were analyzed on an Agilent 1200 series liquid chromatograph for temperature profiling using a Zorbax 300 SB-C8 column (150 mm×2.1 mm I.D.; 5 μm particle size, 300 Å pore size) from Agilent Technologies. […] Temperature profiling was carried out on peptide mixtures run at each temperature in 2° C. increments from 5° C. to 41° C. and 10° C. increments from 5° C. to 75° C. Twenty minutes was allowed between runs for temperature equilibration. • Characterization of Helical Structure: The mean residue molar ellipticities of peptides were determined by circular dichroism (CD) spectroscopy, using a Jasco J-815 spectropolarimeter (Jasco Inc. Easton, Md., USA) at 5° C. under KP buffer (50 mM NaH2PO4/Na2HPO4/100 mM KCl, pH 7.0) as well as in the presence of an α-helix inducing solvent, 2,2,2-trifluoroethanol, TFE, (50 mM NaH2PO4/Na2HPO4/100 mM KCl, pH 7.0 buffer/50% TFE). A 10-fold dilution of an approximately 500 μM stock solution of the peptide analogs was loaded into a 0.1 cm quartz cell and its ellipticity scanned from 195 to 250 nm.

[1] = tested on: Acinetobacter baumannii isolates resistant to classical antibiotics; type: cell-based; conditions: isolates resistant to classical antibiotics
Source text: Thus, shortening the number of carbon atoms between the side-chain amino group and the α-carbon atom from four (Lys) to one (diaminopropionic acid) had very little effect on antibacterial activity (Table 2). We also determined the antibacterial activity of our five AMPs against 20 additional Acinetobacter baumannii isolates from four continents, 12 different countries and 17 different cities that were resistant to 18 different antibiotics. […] Thus, it is very clear that changing the type of positively-charged residue on the polar face of these AMPs had very little effect on the antibacterial activities.

[2] = tested on: Acinetobacter baumannii strains resistant to Polymyxin B and Colistin; conditions: strains resistant to Polymyxin B and Colistin, 24 h
Source text: as §1

[3] = target: the molecule itself; assay: RP-HPLC temperature profiling, self-association (dimerization/oligomerization) against random coil control RC
serum proteins = assay: cell-based or functional assay

MIC 101887 [1]: 0.7 µM (≈ 1.88 µg/mL)
MIC 961997 [1]: 1.5 µM (≈ 4.03 µg/mL)
MIC 963618 [1]: 0.4 µM (≈ 1.07 µg/mL)
MIC 964304 [1]: 0.7 µM (≈ 1.88 µg/mL)
MIC 977751 [1]: 0.7 µM (≈ 1.88 µg/mL)
MIC 981653 [1]: 0.4 µM (≈ 1.07 µg/mL)
MIC 1002956 [1]: 0.4 µM (≈ 1.07 µg/mL)
MIC 1007660 [1]: 0.4 µM (≈ 1.07 µg/mL)
MIC 1010282 [1]: 0.7 µM (≈ 1.88 µg/mL)
MIC 1035166 [1]: 0.7 µM (≈ 1.88 µg/mL)
MIC MB9941 [2]: 0.4 µM (≈ 1.07 µg/mL)
MIC MB9949 [2]: 0.7 µM (≈ 1.88 µg/mL)
MIC MB9951 [2]: 0.7 µM (≈ 1.88 µg/mL)
MIC MB9952 [2]: 0.7 µM (≈ 1.88 µg/mL)
MIC MB9953 [2]: 1.4 µM (≈ 3.76 µg/mL)
MIC MB9955 [2]: 0.7 µM (≈ 1.88 µg/mL)
MIC MB9963 [2]: 0.7 µM (≈ 1.88 µg/mL)
Molecule: CC(=O)N[C@H](CCCCN)C(=O)N[C@H](CC(C)C)C(=O)N[C@@H](CCN)C(=O)N[C@H](CO)C(=O)N[C@H](CC(C)C)C(=O)N[C@H](CC(C)C)C(=O)N[C@@H](CCN)C(=O)N[C@@H](C(=O)N[C@H](CC(C)C)C(=O)N[C@H](CO)C(=O)N[C@@H](CCN)C(=O)N[C@H](C)C(=O)N[C@H](CCCCN)C(=O)N[C@H](C)C(=O)N[C@H](C)C(=O)N[C@H](CCCCN)C(=O)N[C@H](CC(C)C)C(=O)N[C@@H](CCN)C(=O)N[C@@H](C(=O)N[C@H](CC(C)C)C(=O)N[C@H](CC(C)C)C(=O)N[C@@H](CCN)C(=O)N[C@H](C)C(=O)N[C@H](CC(C)C)C(=O)N[C@H](CO)C(=O)N[C@H](CO)C(N)=O)[C@H](C)O)[C@H](C)O [D102(Lys^1Ser^26-5Dab-1), Ac-KL(L-Dab)SLL(L-Dab)TLS(L-Dab)AKAAKL(L-Dab)TLL(L-Dab)ALS(Ser)-amide]
HC50 Fold Improvement (human red blood cells): >177

MIC 101887 [1]: 0.7 µM (≈ 1.89 µg/mL)
MIC 961997 [1]: 0.7 µM (≈ 1.89 µg/mL)
MIC 963618 [1]: 0.7 µM (≈ 1.89 µg/mL)
MIC 964304 [1]: 1.5 µM (≈ 4.05 µg/mL)
MIC 977751 [1]: 0.7 µM (≈ 1.89 µg/mL)
MIC 981653 [1]: 0.7 µM (≈ 1.89 µg/mL)
MIC 1002956 [1]: 0.7 µM (≈ 1.89 µg/mL)
MIC 1007660 [1]: 0.7 µM (≈ 1.89 µg/mL)
MIC 1010282 [1]: 0.7 µM (≈ 1.89 µg/mL)
MIC 1035166 [1]: 0.7 µM (≈ 1.89 µg/mL)
Molecule: CC(=O)N[C@H](CCCCN)C(=O)N[C@H](CC(C)C)C(=O)N[C@@H](CCN)C(=O)N[C@H](CO)C(=O)N[C@H](CC(C)C)C(=O)N[C@H](CC(C)C)C(=O)N[C@@H](CCN)C(=O)N[C@@H](C(=O)N[C@H](CC(C)C)C(=O)N[C@H](CO)C(=O)N[C@@H](CCN)C(=O)N[C@H](C)C(=O)N[C@H](CCCCN)C(=O)N[C@H](C)C(=O)N[C@H](C)C(=O)N[C@H](CCCCN)C(=O)N[C@H](CC(C)C)C(=O)N[C@@H](CCN)C(=O)N[C@@H](C(=O)N[C@H](CC(C)C)C(=O)N[C@H](CC(C)C)C(=O)N[C@@H](CCN)C(=O)N[C@H](C)C(=O)N[C@H](CC(C)C)C(=O)N[C@H](CO)C(=O)N[C@@H](CCN)C(N)=O)[C@H](C)O)[C@H](C)O [D86(Lys^1-6Dab-1), Ac-KL(L-Dab)SLL(L-Dab)TLS(L-Dab)AKAAKL(L-Dab)TLL(L-Dab)ALS(L-Dab)-amide]
HC50 Fold Improvement (human red blood cells): >186
hemolytic activity against red blood cells from four blood donors (human red blood cells): very little hemolytic activity
HC50 (human red blood cells; red cells of human, 18 h): >742 µM

MIC (µM) against A. baumannii strain 649 in 25% human serum (no serum: 0.4) (serum proteins): 0.7 µM
B1: D102(Lys1Ser26-5Dab-1) (peptide)
peptide: Ac-[dK][dL][Dab][dS][dL][dL][Dab][dT][dL][dS][Dab][dA][dK][dA][dA][dK][dL][Dab][dT][dL][dL][Dab][dA][dL][dS][dS]-NH2
SMILES: CC(=O)N[C@H](CCCCN)C(=O)N[C@H](CC(C)C)C(=O)N[C@@H](CCN)C(=O)N[C@H](CO)C(=O)N[C@H](CC(C)C)C(=O)N[C@H](CC(C)C)C(=O)N[C@@H](CCN)C(=O)N[C@@H](C(=O)N[C@H](CC(C)C)C(=O)N[C@H](CO)C(=O)N[C@@H](CCN)C(=O)N[C@H](C)C(=O)N[C@H](CCCCN)C(=O)N[C@H](C)C(=O)N[C@H](C)C(=O)N[C@H](CCCCN)C(=O)N[C@H](CC(C)C)C(=O)N[C@@H](CCN)C(=O)N[C@@H](C(=O)N[C@H](CC(C)C)C(=O)N[C@H](CC(C)C)C(=O)N[C@@H](CCN)C(=O)N[C@H](C)C(=O)N[C@H](CC(C)C)C(=O)N[C@H](CO)C(=O)N[C@H](CO)C(N)=O)[C@H](C)O)[C@H](C)O
notes: Designed 26-residue AMP; Ser26; Lys13/Lys16 specificity determinants; also called D102(5 Dab-1)
PA (self-association parameter) [3]: 0 min

MIC (µM) against A. baumannii strain 649 in 25% human serum (no serum: 0.7) (serum proteins): 0.2 µM
B2: D86(Lys1-6Dab-1) (peptide)
peptide: Ac-[dK][dL][Dab][dS][dL][dL][Dab][dT][dL][dS][Dab][dA][dK][dA][dA][dK][dL][Dab][dT][dL][dL][Dab][dA][dL][dS][Dab]-NH2
modifications: not fully specified
notes: Designed 26-residue AMP; Lys13/Lys16 specificity determinants; also called D86(6 Dab-1); D86-6 Dab-1
PA (self-association parameter) [3]: 0 min

MIC (µM) against A. baumannii strain 649 in 25% human serum (no serum: 0.7) (serum proteins): 0.7 µM
B3: D101(Lys1Ser26-5Lys-1) (peptide)
peptide: Ac-[dK][dL][dK][dS][dL][dL][dK][dT][dL][dS][dK][dA][dK][dA][dA][dK][dL][dK][dT][dL][dL][dK][dA][dL][dS][dS]-NH2
SMILES: CC(=O)N[C@H](CCCCN)C(=O)N[C@H](CC(C)C)C(=O)N[C@H](CCCCN)C(=O)N[C@H](CO)C(=O)N[C@H](CC(C)C)C(=O)N[C@H](CC(C)C)C(=O)N[C@H](CCCCN)C(=O)N[C@@H](C(=O)N[C@H](CC(C)C)C(=O)N[C@H](CO)C(=O)N[C@H](CCCCN)C(=O)N[C@H](C)C(=O)N[C@H](CCCCN)C(=O)N[C@H](C)C(=O)N[C@H](C)C(=O)N[C@H](CCCCN)C(=O)N[C@H](CC(C)C)C(=O)N[C@H](CCCCN)C(=O)N[C@@H](C(=O)N[C@H](CC(C)C)C(=O)N[C@H](CC(C)C)C(=O)N[C@H](CCCCN)C(=O)N[C@H](C)C(=O)N[C@H](CC(C)C)C(=O)N[C@H](CO)C(=O)N[C@H](CO)C(N)=O)[C@H](C)O)[C@H](C)O
notes: Designed 26-residue AMP; Lys at 3, 7, 11, 18, 22; Ser26; Lys13/Lys16 specificity determinants; also called D101(5 Lys-1)
PA (self-association parameter) [3]: 6 min

MIC (µM) against A. baumannii strain 649 in 25% human serum (no serum: 0.4) (serum proteins): 0.2 µM
B4: D85(Lys1-6Orn-1) (peptide)
peptide: Ac-[dK][dL][dOrn][dS][dL][dL][dOrn][dT][dL][dS][dOrn][dA][dK][dA][dA][dK][dL][dOrn][dT][dL][dL][dOrn][dA][dL][dS][dOrn]-NH2
SMILES: CC(=O)N[C@H](CCCCN)C(=O)N[C@H](CC(C)C)C(=O)N[C@H](CCCN)C(=O)N[C@H](CO)C(=O)N[C@H](CC(C)C)C(=O)N[C@H](CC(C)C)C(=O)N[C@H](CCCN)C(=O)N[C@@H](C(=O)N[C@H](CC(C)C)C(=O)N[C@H](CO)C(=O)N[C@H](CCCN)C(=O)N[C@H](C)C(=O)N[C@H](CCCCN)C(=O)N[C@H](C)C(=O)N[C@H](C)C(=O)N[C@H](CCCCN)C(=O)N[C@H](CC(C)C)C(=O)N[C@H](CCCN)C(=O)N[C@@H](C(=O)N[C@H](CC(C)C)C(=O)N[C@H](CC(C)C)C(=O)N[C@H](CCCN)C(=O)N[C@H](C)C(=O)N[C@H](CC(C)C)C(=O)N[C@H](CO)C(=O)N[C@H](CCCN)C(N)=O)[C@H](C)O)[C@H](C)O
notes: Designed 26-residue AMP; also called D85(6Orn-1)
PA (self-association parameter) [3]: 4.1 min
